Target: recombinantly expressed human PARP-1 enzyme (Homo sapiens, UniProt P09874)
Experiment: PARP enzyme assay (half-maximum inhibitor concentration)
Type: biochemical
Details: DNA-activated PARP-1, 200 μM NAD, tritium-labeled NAD incorporation, room temperature, 1 hour, pH 8.0
Method: Pharmacological Investigations PARP Enzyme Assay
The half-maximum inhibitor concentration is determined by incubating the substances to be tested with the DNA-activated, recombinantly expressed and purified PARP-1 enzyme. Specifically, various concentrations of the test substance are incubated in 50 μl of reaction solution, which contains 50 mM Tris, 5 mM MgCl2, 1 mM DTT, 200 μM NAD, 0.1 mCi/ml tritium-labeled NAD, 0.1 mg/ml DNA, 0.1 mg/ml histones, 2 μg/ml recombinantly expressed human PARP-1 enzyme, pH=8.0, at room temperature for 1 hour. The reaction is stopped by adding 150 μl of 20% trichloroacetic acid, and the radiolabeled protein constituents are precipitated. After incubation on ice for 10 minutes, the labeled, insoluble constituents are separated off through a glass fiber filter and, after washing with 20% trichloroacetic acid three times, the radioactivity incorporated by the PARP-1 enzyme is measured by radioluminescence.
IC-50 values were determined in this way for the following compounds: […]

Chain of recombinantly expressed human PARP-1 enzyme (P09874 whole entry): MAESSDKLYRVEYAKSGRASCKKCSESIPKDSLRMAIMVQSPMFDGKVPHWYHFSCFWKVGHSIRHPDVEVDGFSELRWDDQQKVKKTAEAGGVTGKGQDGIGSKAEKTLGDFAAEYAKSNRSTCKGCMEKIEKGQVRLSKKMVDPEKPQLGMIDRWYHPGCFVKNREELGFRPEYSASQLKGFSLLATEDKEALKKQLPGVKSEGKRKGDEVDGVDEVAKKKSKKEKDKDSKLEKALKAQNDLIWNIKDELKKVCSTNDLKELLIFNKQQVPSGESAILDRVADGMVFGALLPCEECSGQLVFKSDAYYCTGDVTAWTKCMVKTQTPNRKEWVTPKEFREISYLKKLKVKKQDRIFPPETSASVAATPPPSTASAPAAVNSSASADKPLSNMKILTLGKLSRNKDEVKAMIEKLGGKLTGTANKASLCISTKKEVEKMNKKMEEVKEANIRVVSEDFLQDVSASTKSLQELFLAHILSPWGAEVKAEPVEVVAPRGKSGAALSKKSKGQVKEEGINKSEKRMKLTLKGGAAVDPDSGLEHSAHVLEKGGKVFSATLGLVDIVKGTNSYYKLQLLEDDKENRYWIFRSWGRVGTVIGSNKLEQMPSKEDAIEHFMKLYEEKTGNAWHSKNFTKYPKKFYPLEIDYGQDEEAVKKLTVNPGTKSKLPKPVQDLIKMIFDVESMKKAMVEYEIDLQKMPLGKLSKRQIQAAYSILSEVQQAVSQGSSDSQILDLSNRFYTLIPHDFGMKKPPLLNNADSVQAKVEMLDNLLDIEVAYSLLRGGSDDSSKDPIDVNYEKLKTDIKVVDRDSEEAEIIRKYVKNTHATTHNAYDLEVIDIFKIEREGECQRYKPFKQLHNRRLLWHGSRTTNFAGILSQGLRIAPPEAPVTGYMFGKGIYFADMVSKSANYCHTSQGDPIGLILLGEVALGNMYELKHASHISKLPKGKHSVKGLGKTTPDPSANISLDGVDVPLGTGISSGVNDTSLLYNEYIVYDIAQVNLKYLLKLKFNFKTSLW

Row | IC50 | Compound
1 | 80 nM | Cc1[nH]c(=O)c2c(c1Nc1cccc(C(=O)N(C)C)c1)CCCC2 [Example 13, N,N-dimethyl-3-(3-methyl-1-oxo-1,2,5,6,7,8-hexahydroisoquinolin-4-ylamino)benzamide]
2 | 440 nM | O=c1[nH]cc(-c2ccc(CN3CCSC3)o2)c2c1CCCC2 [Example 76, 4-(5-thiazolidin-3-ylmethylfuran-2-yl)-5,6,7,8-tetrahydro-2H-isoquinolin-1-one]
3 | 720 nM | O=c1[nH]cc(-c2ccc(CN3CCCC3c3ccccn3)o2)c2c1CCCC2 (stereo not drawn) [Example 67, 4-[5-(2-pyridin-2-ylpyrrolidin-1-ylmethyl)furan-2-yl]-5,6,7,8-tetrahydro-2H-isoquinolin-1-one]
4 | 800 nM | CS(=O)(=O)c1cccc(Nc2c[nH]c(=O)c3c2CCCC3)c1 [Example 6, 4-(3-methanesulfonylphenyl-amino)-5,6,7,8-tetrahydro-2H-isoquinolin-1-one]
5 | 2760 nM | Cn1ccnc1CN(Cc1ccccc1)Cc1ccc(-c2c[nH]c(=O)c3c2CCCC3)o1 [Example 69, 4-(5-{[benzyl(1-methyl-1H-imidazol-2-ylmethyl)amino]-methyl}furan-2-yl)-5,6,7,8-tetrahydro-2H-isoquinolin-1-one]
6 | 3130 nM | COc1ccccc1CNC(=O)c1cncc(-c2c[nH]c(=O)c3c2CCCC3)c1 [Example 46, N-(2-methoxybenzyl)-5-(1-oxo-1,2,5,6,7,8-hexahydroisoquinolin-4-yl)nicotinamide]
7 | 1470 nM | O=C(CNC(=O)c1cncc(-c2c[nH]c(=O)c3c2CCCC3)c1)c1ccccc1 [Example 26, 5-(1-oxo-1,2,5,6,7,8-hexahydroisoquinolin-4-yl)-N-(2-oxo-2-phenylethyl)nicotinamide]
8 | 10600 nM | O=C(c1cccc(Nc2c[nH]c(=O)c3c2CCCC3)c1)N1CCCC1 [Example 21, 4-[3-(Pyrrolidin-1-carbonyl)phenylamino]-5,6,7,8-tetrahydro-2H-isoquinolin-1-one]
9 | 740 nM | Cc1[nH]c(=O)c2c(c1-c1cccnc1)CCCC2 [Example 19, 3-methyl-4-pyridin-3-yl-5,6,7,8-tetrahydro-2H-isoquinolin-1-one]
10 | 150 nM | O=c1[nH]cc(-c2ccc(CNCc3ccccc3)o2)c2c1CCCC2 [Example 79, 4-[5-(benzylaminomethyl)furan-2-yl]-5,6,7,8-tetrahydro-2H-isoquinolin-1-one]
11 | 5110 nM | CCN1CCCC1CNC(=O)c1cncc(-c2c[nH]c(=O)c3c2CCCC3)c1 (stereo not drawn) [Example 49, N-(1-ethylpyrrolidin-2-ylmethyl)-5-(1-oxo-1,2,5,6,7,8-hexahydroisoquinolin-4-yl)nicotinamide]
12 | 9830 nM | O=c1[nH]cc(Nc2nc(-c3ccncc3)cs2)c2c1CCCC2 [Example 3, 4-(4-pyridin-4-ylthiazol-2-ylamino)-5,6,7,8-tetrahydro-2H-isoquinolin-1-one]
13 | 180 nM | Cn1cc(CNCc2ccc(-c3c[nH]c(=O)c4c3CCCC4)o2)cn1 [Example 77, 4-(5-{[(1-methyl-1H-pyrazol-4-ylmethyl)amino]methyl}furan-2-yl)-5,6,7,8-tetrahydro-2H-isoquinolin-1-one]
14 | 3480 nM | Cc1cc(CNC(=O)c2cncc(-c3c[nH]c(=O)c4c3CCCC4)c2)no1 [Example 34, N-(5-methylisoxazol-3-ylmethyl)-5-(1-oxo-1,2,5,6,7,8-hexahydroisoquinolin-4-yl)nicotinamide]
15 | 400 nM | O=C(NCc1ccc([N+](=O)[O-])cc1)c1cncc(-c2c[nH]c(=O)c3c2CCCC3)c1 [Example 28, N-(4-nitrobenzyl)-5-(1-oxo-1,2,5,6,7,8-hexahydroisoquinolin-4-yl)nicotinamide]
16 | 8270 nM | NS(=O)(=O)c1ccc(CCNC(=O)c2cncc(-c3c[nH]c(=O)c4c3CCCC4)c2)cc1 [Example 44, 5-(1-oxo-1,2,5,6,7,8-hexahydroisoquinolin-4-yl)-N-[2-(4-sulf-amoylphenyl)ethyl]nicotinamide]
17 | 540 nM | O=C(NCc1ccc(-c2c[nH]c(=O)c3c2CCCC3)o1)C(F)(F)F [Example 80, 2,2,2-trifluoro-N-[5-(1-oxo-1,2,5,6,7,8-hexahydroisoquinolin-4-yl)furan-2-ylmethyl]acetamide]
18 | 660 nM | CN1CCN(CNCc2ccc(-c3c[nH]c(=O)c4c3CCCC4)o2)CC1 [Example 73, 4-(5-{[(4-methylpiperazin-1-ylmethyl)amino]methyl}furan-2-yl)-5,6,7,8-tetrahydro-2H-isoquinolin-1-one]
19 | 310 nM | O=c1[nH]cc(-c2ccc(CNC3Cc4ccccc4C3)o2)c2c1CCCC2 [Example 70, 4-[5-(indan-2-ylaminomethyl)-furan-2-yl]-5,6,7,8-tetrahydro-2H-isoquinolin-1-one]
20 | 3850 nM | O=C(NCC1CC(c2ccccc2)=NO1)c1cncc(-c2c[nH]c(=O)c3c2CCCC3)c1 (stereo not drawn) [Example 41, 5-(1-oxo-1,2,5,6,7,8-hexahydroisoquinolin-4-yl)-N-(3-phenyl-4,5-dihydroisoxazol-5-ylmethyl)-nicotinamide]
21 | 820 nM | O=C(NCCc1ccncc1)c1cncc(-c2c[nH]c(=O)c3c2CCCC3)c1 [Example 43, 5-(1-oxo-1,2,5,6,7,8-hexahydroisoquinolin-4-yl)-N-(2-pyridin-4-ylethyl)nicotinamide]
22 | 1030 nM | CS(=O)(=O)c1ccc(CNC(=O)c2cncc(-c3c[nH]c(=O)c4c3CCCC4)c2)cc1 [Example 42, N-(4-methanesulfonylbenzyl)-5-(1-oxo-1,2,5,6,7,8-hexahydroisoquinolin-4-yl)nicotinamide]
23 | 1070 nM | CC(C)CC(=O)NCc1ccc(-c2c[nH]c(=O)c3c2CCCC3)o1 [Example 81, 3-methyl-N-[5-(1-oxo-1,2,5,6,7,8-hexahydroisoquinolin-4-yl)furan-2-ylmethyl]butyramide]
24 | 670 nM | O=c1[nH]cc(Nc2ccc(Cl)nc2)c2c1CCCC2 [Example 12, 4-(6-chloropyridin-3-ylamino)-5,6,7,8-tetrahydro-2H-isoquinolin-1-one]
25 | 2480 nM | COc1cccc(S(=O)(=O)NCc2ccc(-c3c[nH]c(=O)c4c3CCCC4)o2)c1 [Example 86, 3-methoxy-N-[5-(1-oxo-1,2,5,6,7,8-hexahydroisoquinolin-4-yl)furan-2-ylmethyl]benzenesulfonamide]
26 | 340 nM | O=c1[nH]cc(-c2ccc(CNCN3CCC(N4CCCC4)CC3)o2)c2c1CCCC2 [Example 64, 4-(5-{[(4-pyrrolidin-1-ylpiperidin-1-ylmethyl)amino]methyl}furan-2-yl)-5,6,7,8-tetrahydro-2H-isoquinolin-1-one]
27 | 1270 nM | O=c1[nH]cc(-c2ccc(CNCc3ccncc3)o2)c2c1CCCC2 [Example 58, 4-(5-{[(pyridin-4-ylmethyl)amino]-methyl}furan-2-yl)-5,6,7,8-tetrahydro-2H-isoquinolin-1-one]
28 | 990 nM | O=c1[nH]cc(-c2ccc(CNCc3cccnc3)o2)c2c1CCCC2 [Example 59, 4-(5-{[(pyridin-3-ylmethyl)amino]-methyl}furan-2-yl)-5,6,7,8-tetrahydro-2H-isoquinolin-1-one]
29 | 610 nM | O=c1[nH]cc(Nc2cccc(CO)c2)c2c1CCCC2 [Example 8, 4-(3-hydroxymethylphenyl-amino)-5,6,7,8-tetrahydro-2H-isoquinolin-1-one]

Row | Compound | IC50
30 | 4-(6-morpholin-4-ylpyridin-3-yl-amino)-5,6,7,8-tetrahydro-2H-isoquinolin-1-one [Example 4] | 6350 nM

— patent US7795278B2 (sanofi-aventis Deutschland GmbH, priority 2004, dated 2010)
